These results are taken from publication PMC4319890, “UFSRAT: Ultra-Fast Shape Recognition with Atom Types –The Discovery of Novel Bioactive Small Molecular Scaffolds for FKBP12 and 11βHSD1” (PLoS ONE, 2015).

The target of experiment [1] is T1, HEK-293 cells transfected with human 11β-HSD1 (Homo sapiens, UniProt P28845).
T1 construct: HEK-293 cells stably transfected with the full length human hsd11b1 gene; expressed in transfected cells; host or cells: HEK-293
The experiment is described as follows: Scintillation proximity assay (SPA), inhibition of 11β-HSD1 reductase activity in cells. The format is cell-based. Particulars: for IC50: conversion of cortisone to cortisol, 40 nM [3H]-cortisone, 1% DMSO. The method, then:
Testing for inhibition of 11β-HSD1 reductase activity in cells. Candidate compounds were tested for inhibition of the conversion of cortisone to cortisol by 11β-HSD1 expressed in HEK-293 cells stably transfected with the full length human hsd11b1 gene as previously described. An established scintillation proximity assay (SPA) was carried out in a 96-well plate format, with appropriate controls. Experiments were set up in triplicate with 8 inhibitor concentration points per compound, spanning 3.5 orders of magnitude. Final solution conditions: 40 nM [^3H]-cortisone; 50 mM Tris pH 8.0, 50 mM NaCl; 1% DMSO. The anti-cortisol antibody was purchased from HyTest, Finland; radiometric quantification was carried out on a Perkin Elmer TopCount instrument. The percentage inhibition was determined relative to a non-inhibited control and the IC50 determined from a plot of percentage inhibition against compound concentration. Data were fitted global nonlinear regression using Kaleidagraph V4.0 (Synergy Software).

The target in the next experiment is T2, recombinant h11β-HSD1 (Homo sapiens, UniProt P28845).
T2 construct: made in house
T2 sequence (P28845 whole entry): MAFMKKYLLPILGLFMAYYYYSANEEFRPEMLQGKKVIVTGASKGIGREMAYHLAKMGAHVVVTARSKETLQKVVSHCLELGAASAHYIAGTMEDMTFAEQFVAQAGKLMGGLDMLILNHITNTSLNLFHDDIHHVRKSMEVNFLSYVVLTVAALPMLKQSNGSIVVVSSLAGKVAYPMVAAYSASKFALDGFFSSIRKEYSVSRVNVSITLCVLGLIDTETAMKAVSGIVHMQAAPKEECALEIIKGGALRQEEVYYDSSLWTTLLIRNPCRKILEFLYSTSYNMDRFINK
Description: Fluorescence assay, inhibition of 11β-HSD1 dehydrogenase activity. The class given is biochemical. Particulars: conversion of cortisol to cortisone; 1 μM 11β-HSD1, 200 μM cortisol, 500 μM NADP, pH 7.7, 25°C; read-out: Fluoresc. Ki^app. The method, then: Testing for inhibition of 11β-HSD1 dehydrogenase activity. Candidate compounds were tested for inhibition of the conversion of cortisol to cortisone by recombinant h11β-HSD1. The dehydrogenation of cortisol is accompanied by the reduction of NADP^+ to NADPH; this was followed spectrophotometrically and scaled to a NADPH calibration curve. The excitation and emission wavelengths were 340 and 458 nm. (SpectraMax M5, Molecular Devices). The experimental conditions were 500 μM NADP, 1 μM 11β-HSD1, 200 μM cortisol 50 mM Tris, pH 7.7, 50 mM NaCl; 25°C. Reactions were carried out in sextuplicate. Ki ^app were derived from a fit of the rate of the reaction as a function of inhibitor concentration; Kaleidagraph, V4.0 [43]

For another experiment, the system named is 11β-HSD1. Also noted: method as in PMID 16087724. Particulars: Figure 5 legend; cited from earlier work.
In experiment [2] the target is T3, Recombinant human FKBP12 (Homo sapiens, UniProt P62942).
T3 construct: made in house
T3 sequence (P62942 whole entry): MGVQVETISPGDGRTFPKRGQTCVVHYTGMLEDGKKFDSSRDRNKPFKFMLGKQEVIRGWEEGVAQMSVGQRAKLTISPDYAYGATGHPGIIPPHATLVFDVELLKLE
The experiment is described as follows: Electrospray ionization mass spectrometry (ESI-MS) binding assay. Particulars: 50°C; 100 μM ligand, 5 μM FKBP12, 10% methanol, pH 6.8; read-out: ESI-MS Kd^app. On the procedure: Electrospray ionization mass spectrometry. Electrospray-ionization mass spectrometry (ESI-MS) was used to detect binding to FKBP12. Data was collected on a LCQ^TMDECA ion-trap instrument (ThermoQuest) run in the positive ion mode. The analyte was introduced by direct infusion and the following operating parameters were employed: nitrogen flow 100units, analyte flow 6 μl∙min^-1, capillary voltage 3.5 kV, cone voltage 25 V and capillary temperature 50°C. Spectrum were averaged over 300 scans (2s/ scan) and processed using the Bioworks Browser V 3.0 software package and ProMass 2.5 (ThermoScientific). The analyte solution consisted of 100 μM ligand, 5 μM FKBP12 in 10% methanol (v/v), 10 mM ammonium acetate, pH 6.8 incubated for 10 minutes at room temperature. Kd ^app for the interaction between the protein and ligand were calculated from the ratio of the intensity of the ion signal from free protein and protein in complex with ligand using the method of Tjernberg.

For experiment [3], the target named is T3, Recombinant human FKBP12. The experiment is described as follows: Thermal denaturation fluorescence (TDF) binding assay. The method, then:
Thermal denaturation fluorescence (TDF). A fluorescence based thermal denaturation assay was used to detect binding to FKBP12 essentially as described in the study of Lo [38]. Final conditions were: 50 mM ammonium acetate, pH 7.0; 10 μM FKBP12; 250 μM screening compound and 5x SYPRO orange dye (Invitrogen). […] Protein was melted over the temperature range 20 to 80°C; 0.5°C increment, 30s hold. Compounds were screened for fluorescence in the absence of protein; all samples were solvent matched and repeated in triplicate on 3 separate experiments. Apparent equilibrium dissociation constants (Kd ^app) for the interaction between the protein and ligands were calculated from the change in mid-point melting temperature of the protein (Tm) on addition of ligand and transformed to 25°C using a benchmark value for the enthalpy of ligand binding of -5 kcal∙mol^-1 [39].

For the next experiment, the target named is FKBP12. Further details: method as in PMID 18038971. Particulars: 27°C printed for Q2; cited from earlier work.
Where [4] appears, read: at the mid-point melting temperature Tm, 10 μM FKBP12, 250 μM compound, pH 7.0, read-out: TDF Kd^app at Tm.
The mark [5] stands for this setting: value in brackets, transformed to 25°C using a benchmark enthalpy of ligand binding of -5 kcal/mol, read-out: TDF Kd^app (transformed 25°C) (converted).

T1 sequence (P28845 whole entry): as the sequence (P28845 whole entry) above

For orientation: IC50 means the concentration that inhibits the measured activity by half. On to `COc1ccc2[nH]c(SCC(=O)c3ccc(O)c(O)c3)nc2c1` [Compound 7, 1-(3,4-dihydroxyphenyl)-2-[(6-methoxy-1H-benzimidazol-2-yl)sulfanyl]ethanone], for which, in experiment [1], the IC50 came to 7.9 ± 3 µM. In addition, the Ki at recombinant h11β-HSD1 was determined as 248 ± 73 µM.
On to `COc1ccc(/C=C/C(=O)/C=C/c2ccc(OC)c(OC)c2)cc1OC` [Compound 5, (1E,4E)-1,5-bis(3,4-dimethoxyphenyl)penta-1,4-dien-3-one], for which the IC50 in experiment [1] amounted to 11.3 ± 2.6 µM. On recombinant h11β-HSD1, the Ki came out at 142 ± 66 µM.
Regarding `CC1(C)[C@@H](OC(=O)CCC(=O)O)CC[C@]2(C)[C@H]3C(=O)C=C4[C@@H]5C[C@@](C)(C(=O)O)CC[C@]5(C)CC[C@@]4(C)[C@]3(C)CC[C@@H]12` [Carbenoxolone], the “inhibitor of 11β-HSD1 (potency, type not given)” value in the experiment on 11β-HSD1 was 0.02 µM.
For the compound `O=C(NCC(O)c1ccccc1)c1cccc(Cl)c1` (centres unmarked) [Compound 3, 3-chloro-N-(2-hydroxy-2-phenyl-ethyl)benzamide], the Kd is 383 ± 52 µM on Recombinant human FKBP12 [2], 568 ± 84 µM on Recombinant human FKBP12 [3] (setting [4]) and 263 µM at Recombinant human FKBP12 [3] (setting [5]).
`CC(=O)Nc1ccccc1NC(=O)CCc1ccccc1` [Compound 4, N-(2-acetamidophenyl)-3-phenyl-propanamide]: the Kd at Recombinant human FKBP12 [2] was 281 ± 42 µM; on Recombinant human FKBP12 [3] (setting [4]) it was 648 ± 88 µM; on Recombinant human FKBP12 [3] (setting [5]) it was 303 µM.
Turning to `O=C(CNC(=O)c1ccccc1C(=O)O)c1ccccc1` [Compound 1, 2-(phenacylcarbamoyl)benzoic acid], the Kd at Recombinant human FKBP12 [2] was 313 ± 30 µM; on Recombinant human FKBP12 [3] (setting [4]), 548 ± 38 µM; on Recombinant human FKBP12 [3] (setting [5]) it was 252 µM.
For “Dihydroxyphenyl)-2-oxoethyl]sulfanyl}-1H-tetrazol-1-yl)benzamide [Compound 6]”, at recombinant h11β-HSD1, the Ki came out at 47 ± 13 µM.
Take `COc1ccc(C(=O)CSc2ccccn2)cc1` [Compound 8, 1-(4-methoxyphenyl)-2-(2-pyridylsulfanyl)ethanone]: in experiment [1], the IC50 turned out to be 0.067 ± 0.003 µM. For the same compound, the “affinity IC50 in a cell based assay (in words)” value in experiment [1] (discussion) is given as “low nanomolar”. Besides, the Ki on recombinant h11β-HSD1 worked out at 26 ± 7 µM.
Turning to `Cc1ccc(SCC(=O)N2CCOCC2)cc1` [Compound Q2, 1-morpholino-2-(p-tolylsulfanyl)ethanone, reference compound], the Kd was 197 ± 74 µM at Recombinant human FKBP12 [2], 28 ± 8 µM at Recombinant human FKBP12 [3] (setting [4]), 6 µM at Recombinant human FKBP12 [3] (setting [5]) and 15 µM at FKBP12.
In the case of `CC(NC(=O)c1ccccc1)C(O)c1ccccc1` (centres unmarked) [Compound 2, N-(2-hydroxy-1-methyl-2-phenyl-ethyl)benzamide], the Kd was 399 ± 45 µM on Recombinant human FKBP12 [2], 575 ± 70 µM on Recombinant human FKBP12 [3] (setting [4]) and 266 µM on Recombinant human FKBP12 [3] (setting [5]).
As to `Cc1ccc(S(=O)(=O)CC(=O)N2CCOCC2)cc1` [Compound Q3, 2-[(4-methylbenzene)-sulfonyl]-1-(morpholin-4-yl)ethan-1-one], the Kd at FKBP12 is 95 µM.
